This is an account of results in patent publication US10500188B1, “Use of a polyenylpyrrole derivative in preparation of anti-oral cancer drugs” (TZU CHI UNIVERSITY, priority 2019, dated 2019).

The structures appear in SMILES notation.

The test system of data set [1] is normal oral cells (K2). The data set is described as follows: MTT cell proliferation assay, normal oral cells (K2). The class given is cell-based. The conditions noted are these: 100, 500, 800, 1000 nM, 24 and 48 hr, FIG. 2A. The procedure: MTT (3-(4,5-dimethylthiazol-2-yl)-2,5-diphenyltetrazolium bromide) assay is used for measuring cell proliferation. Add 3000 OSCC cells (SCC-15 and TW2.6) and 5000 immortalized cells (K2) into each well of a 96-well plate. Next day add the present polyenylpyrrole derivative (F236B) into the respective well and remove culture medium after 24 hours (hr) and 48 hr respectively. Then add MTT dissolved in culture medium (150 μL per well) except the background wells and react for 90 min. Lastly remove solution in the culture plate and add DMSO (150 μL per well) into the culture plate for dissolving the pigment. After being dissolved completely, use the ELISA machine to measure absorbance at 570 nm. […] 2A-2C.
On the technique in general: Formazan colour is commonly taken as a measure of viable cells.

Data set [2] has as its system OSCC cells (SCC-15). The data set is described as follows: MTT cell proliferation assay, OSCC cells (SCC-15). The class given is cell-based, human. The procedure: (§1) MTT (3-(4,5-dimethylthiazol-2-yl)-2,5-diphenyltetrazolium bromide) assay is used for measuring cell proliferation. Add 3000 OSCC cells (SCC-15 and TW2.6) and 5000 immortalized cells (K2) into each well of a 96-well plate. Next day add the present polyenylpyrrole derivative (F236B) into the respective well and remove culture medium after 24 hours (hr) and 48 hr respectively. Then add MTT dissolved in culture medium (150 μL per well) except the background wells and react for 90 min. Lastly remove solution in the culture plate and add DMSO (150 μL per well) into the culture plate for dissolving the pigment. After being dissolved completely, use the ELISA machine to measure absorbance at 570 nm. The concentration of the polyenylpyrrole derivative (F236B) used is 10, 50, 80, 100, and 200 nM respectively, as results shown in FIG. 2A-2C.
Also refer to FIG. 2C, test results of OSCC cells (TW2.6) treated with 10, 50, 80, 100, and 200 nM polyenylpyrrole derivative (F236B) respectively are disclosed. […] Moreover, the present polyenylpyrrole derivative (F236B) not only has effects on the OSCC cells of Western people (SCC-15) but also affects the OSCC cells of Asians (TW2.6). Thus the polyenylpyrrole derivative (F236B) can be widely used in the OSCC cells. In the previous tests for assessment of the effects of natural products on cancer cells, the unit of the concentration unit used is μM. […]

In data set [3] the test system is TW2.6 human oral squamous cell carcinoma (OSCC) cell line. The data set is described as follows: MTT cell proliferation assay, OSCC cells (TW2.6). Conditions: 10, 50, 80, 100, 200 nM, 24 and 48 hr, FIG. 2C. The class given is cell-based.
Text: The present polyenylpyrrole derivative is used to inhibit oral cancer cells. The oral cancer cell can be oral squamous cell carcinoma (OSCC) cell (SCC-15 cell line). The TW2.6 human oral squamous cell carcinoma (OSCC) cell line obtained from Asian people can also be used in cell proliferation assay.
as §1
Also refer to FIG. 2C, test results of OSCC cells (TW2.6) treated with 10, 50, 80, 100, and 200 nM polyenylpyrrole derivative (F236B) respectively are disclosed. […]

The test system of data set [4] is SCC-15 xenograft tumor. As to the kind of experiment: Cell-line-derived xenograft model (SCC-15 cell line). The data set is classed as in vivo, NOD-SCID male mice. Conditions: 1 mg/kg s.c. into neck, vs PBS control, FIG. 2D. The source says:
(§2) In order to learn whether in vivo test results of OSCC cells (SCC-15, TW2.6) are consistent with in vitro test results of the same, a cell-line-derived xenograft model (SCC-15 cell line) and a patient-derived xenograft (PDX) model of patients with oral cancers are used to test xenograft tumorigenicity of oral cancer cells and the results are shown in FIG. 2D-2F.
As to the cell-line-derived xenograft model, six-to-eight-week-old NOD-SCID male mice are used. About 5×10^6 SCC-15 cells are subcutaneously injected into the right abdominal of the mouse. There are two experimental groups. The mouse in the first group (I) is injected with the polyenylpyrrole derivative (F236B) the day after being injected with the OSCC cells. In the second group (II), the mouse is injected with the polyenylpyrrole derivative (F236B) when the tumor grows to a size with a diameter of about […]. The polyenylpyrrole derivative (F236B) at a dose of 1 mg/kg is subcutaneously injected into the neck of the mouse. Samples are taken when the cells grow to a size with a diameter of about 1 cm (21-day).

Data set [5] concerns patient oral cancer tissue xenograft. As to the kind of experiment: Patient-derived xenograft (PDX) model of patients with oral cancers. The data set is classed as in vivo, NOD-SCID male mice.
Text: as §2
After approval of the institutional review board (IRB), oral cancer tissues of patients are collected at the Department of Otolaryngology, Hualien Tzu Chi Hospital during the period from Jul. 1, 2016 to Jun. 30, 2017. The PDX model has been established by immersing and washing the samples collected in Penicillin/Streptomycin diluted 2-fold with PBS, and using six-to-eight-week-old NOD-SCID male mice. After injection of a 0.01 mL/g body weight dose of ketamine/xylazine into a mouse, a 1.5×1.5 cm^2 skin surface at the right abdomen of the anesthetized mouse is treated with a depilatory agent to remove hair. Use tincture of iodine as a disinfectant and cut a wound of […] on the mouse skin and suture the wound after tumor tissue being applied. During recovery period, the rearing cage is set on the heating pad and turned back to the rearing rack after recovery. After the surgery, observe the mouse day by day and then get the mouse out of the cage when the tumor reaches a diameter of about 1 cm. […]
For orientation: In xenograft studies the graft and the host belong to different species.

For data set [6], the system named is prostate apoptosis response-4 (Par-4). The data set is described as follows: Expression of Par-4 in OSCC cells. The data set is classed as cell-based. The conditions noted are these: FIG. 3C. The procedure:
Also refer to FIG. 3D and FIG. 3E. The results of the SC group (SCC-15 cell line without the knockdown Par-4 gene) treated with 10 nM, 50 nM, 80 nM, 100 nM, and 200 nM polyenylpyrrole derivative (F236B) for 24 hours and 48 hours respectively are shown in FIG. 3D. The results of the Par-4-KD group (SCC-15 cell line with the knockdown Par-4 gene) treated with 10 nM, 50 nM, 80 nM, 100 nM, and 200 nM polyenylpyrrole derivative (F236B) for 24 hours and 48 hours respectively are shown in FIG. 3E.

The test system of data set [7] is SCC-15 cells. The data set is described as follows: Tumor sphere formation on matrigel. The data set is classed as cell-based, human. Conditions: compared with the Par-4-KD group; FIG. 4. The protocol: Refer to FIG. 4, the test results of the tumor sphere formation ability of the OSCC cells are shown. In order to culture cells (SCC-15) for tumor sphere formation, each well of a 24-well plate is coated with 150 μL growth factor reduced matrigel, then placed in 4° C. refrigerator and shaken for 15 minutes to make the growth factor reduced matrigel distribute evenly therein. Place in 37° C. incubator for 1 hour. After firm matrigel formation, each well is added with 5000 SCC-15 cells and change culture medium every day.

Data set [8] concerns SCC-15 cell line without the knockdown Par-4 gene. As to the kind of experiment: Migration test, SC group. The class given is cell-based, human. The conditions noted are these: 100 nM and 200 nM; 0, 3, 9 hr; FIG. 5A. The procedure: Then migration and movement of the Par-4-KD group and the SC group treated with polyenylpyrrole derivative (F236B) is tested and the results are shown in FIG. 5A-5B and FIG. 6.
The results of the Par-4-KD group (SCC-15 cell line with the knockdown Par-4 gene) treated with 100 nM and 200 nM polyenylpyrrole derivative (F236B) for 0, 3, and 9 hrs respectively are shown in FIG. 5B.

In data set [9] the test system is SCC-15 cells. The data set is described as follows: Transwell assay for movement of tumor cells. The data set is classed as cell-based, human. The conditions noted are these: 24 and 48 hrs, compared with the Par-4-KD group, FIG. 6. The procedure: Refer to FIG. 6, a transwell assay is used for testing movement of tumor cells. A 24-well transwell chamber with 8.0 μm polycarbonate membrane (6.5 mm) therein is used. Add 100 μL serum free media into the upper layer and 500 μL media containing 10% serum into the lower layer. Then add 5000 cells (SCC-15) into the upper layer of each well, incubate overnight and add the polyenylpyrrole derivative (F236B). Remove the upper layer after 24 hrs and 48 hrs, respectively and wash 2 times with PBS. Add methanol (500 μL per well) at 4° C. for 1 hr for fixation and wash 2 times with PBS. Next, stain with crystal violet for 10 min and wash 2 times with PBS. Lastly observe and count the number of cells moved to the lower layer.

Data set [10] concerns IL-17RA in OSCC cells (SCC-15). The data set is described as follows: Western blot of IL-17RA expression. The conditions noted are these: SCC-15, Western blot, vs DMSO control; FIG. 7. The data set is classed as cell-based, human. The procedure: Western blot is used to detect expression of IL-17RA in the OSCC cells (SCC-15) treated with the polyenylpyrrole derivative (F236B). The proteins are separated by SDS-PAGE gel and then transferred to a Polyvinylidene difluoride (PVDF) membrane. Then soak in 5% BSA (bovine serum albumin) for 1 hour for blocking. After removal of BSA and addition of primary antibodies, place the membrane in 4° C. refrigerator with constant shaking for 16 hr and wash 3 times with TBST-Tween20 (TBST) (each takes 15 min). Next add secondary antibodies and shake at room temperature for 1 hour. Then wash 3 times with TBST and each step takes 15 min. Lastly use enhanced chemiluminescent (ECL) reagent (RPN2106 ECL™ Western Blotting Reagent) for imaging and UVP BioSpectrum to detect images. […] Therefore, the reduction effect of the polyenylpyrrole derivative (F236B) on the expression of IL-17RA is associated with the tumor-suppressor function of the polyenylpyrrole derivative (F236B).

Consider `CCOc1cc(/C=C/C=C/C=C/C=C/c2[nH]ccc2Cl)oc(=O)c1` [F236B], for which the “proliferation of normal oral cells (K2)” value in data set [1] is on record as “doesn't affect the proliferation of normal oral cells”. In addition, the “proliferation of OSCC cells (SCC-15)” value in [2] (MTT, 10, 50, 80, 100, 200 nM, 24 and 48 hr, FIG. 2B) was “inhibits proliferation of the OSCC cells (SCC-15)”. Moreover, the “proliferation of OSCC cells in the SC group” value in data set [2] (SCC-15 without Par-4 knockdown, 10-200 nM, 24 and 48 hours, FIG. 3D) is on record as “apparently reduced”. The “proliferation of OSCC cells (TW2.6)” value in data set [3] is given as “inhibits proliferation of the OSCC cells (TW2.6)”. Moreover, the “tumor volume, first group (I)” value in [4] (started the day after injection of OSCC cells, 21-day) is recorded as “significantly reduced”. The “tumor volume, second group (II)” value in data set [4] (started when tumor diameter about 30 mm) is reported as “significantly reduced”. For the same molecule, the “tumor volume, PDX” value in data set [5] (P3 mice, 1 mg/kg s.c. into neck, vs PBS control, FIG. 2E) is on record as “dramatically decreased”. In addition, the “weight of the mouse” value in data set [5] (treated with F236B vs PBS, triplicate groups, FIG. 2F) was “not affected”. The “expression of Par-4 in the OSCC cells” value in [6] is listed as “enhances expression of Par-4”. For the same molecule, in [7], the “tumor sphere formation ability, SC group” value is “obviously reduced”. In addition, the “migration ability, SC group” value in data set [8] was “clearly reduced”. The “movement of the OSCC cells in the SC group” value in data set [9] is “significantly reduced”. Moreover, the “expression of IL-17RA” value in [10] was “obviously inhibited”.
